Measured values reported in US5942501A, “Cyclodextrin derivative complex” (priority 1996, dated 1999).

Tests used:
[1] = Solubility in water of salicylic acid, cyclodextrins and cyclodextrin inclusion complexes; assay type: physicochemical; details: complexed with cyclodextrin
[2] = cited from earlier work

OCCOc1ccccc1 [phenoxyethanol]
solubility in complexed form (in words) [1]: more soluble in complexed form

O=C(O)c1ccccc1O [salicylic acid]
solubility of salicylic acid in water ([2]; ambient temperatures, uncomplexed): about 0.3%
solubility of S.A. in water or mixed aqueous solvent (uncomplexed) ([2]; water or mixed aqueous solvent, starting value before complexation): about 0.3%
